Where “and” joins values, the source holds several entries; their conditions need not be identical. Equal values may be shown once. Read-outs that look alike come from different tables or passages of the source.
Experiments:
hCA I = target: T1, hCA I (Homo sapiens, UniProt P00915); test: stopped-flow CO2 hydrase assay, hCA I; type: biochemical
T1 construct: made in house
Method: (§1) Newly synthesized hybrids 5a–n were tested for their inhibitory activity against four physiologically and pharmacologically CA isoforms, namely cytosolic hCA I and II, and tumor-associated isoforms hCA IX and XII, using a CO2 hydrase stop-flow assay. Acetazolamide (AAZ), clinically used sulphonamide, was used as the standard drug. […] The ability of imidazoles 5a–n toward inhibition of hCA I, II (cytosolic) as well as hCA IX and XII (transmembrane, tumor-associated isoforms) using stopped-flow CO2 hydrase assay was evaluated. See Appendix A.
(§2) The enzymes are recombinant proteins prepared in our lab. […] The uncatalyzed rates were determined in the same manner and subtracted from the total observed rates. Stock solutions of inhibitor (0.1 mM) were prepared in distilled-deionized water and dilutions up to 0.01 nM were done thereafter with the assay buffer. Inhibitor and enzyme solutions were preincubated together for 15 min at room temperature prior to assay, in order to allow for the formation of the E-I complex. The inhibition constants were obtained by non-linear least-squares methods using PRISM 3 and the Cheng-Prusoff equation, and represent the mean from at least three different determinations.

hCA II = target: T2, hCA II (Homo sapiens, UniProt P00918); test: stopped-flow CO2 hydrase assay, hCA II; type: biochemical
T2 construct: made in house
Method: as §1, §2

hCA IX = target: T3, hCA IX (Homo sapiens, UniProt Q16790); test: stopped-flow CO2 hydrase assay, hCA IX; type: biochemical; conditions: for Selectivity Ratio hCA XII/ hCA IX: selectivity for hCA IX over hCA XII; for Ki: stopped-flow CO2 hydrase assay; for IC50: quoted in docking discussion, read-out: IC50 CA-IX (in vitro inhibitory activity quoted in docking study)
T3 construct: made in house
Method: as §1, §2

hCA XII = target: T4, hCA XII (Homo sapiens, UniProt O43570); test: stopped-flow CO2 hydrase assay, hCA XII; type: biochemical
T4 construct: made in house
Method: Newly synthesized hybrids 5a–n were tested for their inhibitory activity against four physiologically and pharmacologically CA isoforms, namely cytosolic hCA I and II, and tumor-associated isoforms hCA IX and XII, using a CO2 hydrase stop-flow assay. Acetazolamide (AAZ), clinically used sulphonamide, was used as the standard drug. […]. The ortho substitution in the aryl moiety appears to correlate with higher inhibitory effects against both hCA IX and XII. […] […]. The ability of imidazoles 5a–n toward inhibition of hCA I, II (cytosolic) as well as hCA IX and XII (transmembrane, tumor-associated isoforms) using stopped-flow CO2 hydrase assay was evaluated. See Appendix A.
The carbonic anhydrase catalyzed CO2 hydration actions for all new compounds herein reported have were assayed utilizing an instrument of Applied Photophysics stopped-flow. The enzymes are recombinant proteins prepared in our lab. […]. The uncatalyzed rates were determined in the same manner and subtracted from the total observed rates. Stock solutions of inhibitor (0.1 mM) were prepared in distilled-deionized water and dilutions up to 0.01 nM were done thereafter with the assay buffer. Inhibitor and enzyme solutions were preincubated together for 15 min at room temperature prior to assay, in order to allow for the formation of the E-I complex. The inhibition constants were obtained by non-linear least-squares methods using PRISM 3 and the Cheng-Prusoff equation, and represent the mean from at least three different determinations.

[1] = Cell viability assay (MTT); type: cell-based; conditions: human, MCF-10A mammary gland epithelial cells, MCF-10A cells, incubated 4 days
Method: Cell viability assay was carried out using human mammary gland epithelial cell line (MCF-10A). MCF-10A cells were incubated with compounds 5b, 5d, 5e, 5g, 5j and 5n for 4 days and MTT assay was used to determine the viability of cells. See Appendix A.
MTT assay was carried out to study the effect of compounds on mammary epithelial cells (MCF-10A). The medium in which cells were propagated contained Dulbecco’s modified Eagle’s medium (DMEM)/Ham’s F-12 medium (1:1) supplemented with epidermal growth factor (20 ng/mL), hydrocortisone (500 ng/mL), insulin (10 μg/mL), 2 mM glutamine and 10% fetal calf serum. After every 2–3 days, the cells were passaged using trypsin ethylenediamine tetra acetic acid (EDTA). The cells were seeded at a density of 10^4 cells mL^−1 in flat-bottomed culture plates containing 96 wells each. After 24 h, medium was removed from the plates and the compounds in (in 0.1% DMSO) were added (in 200 μL medium to yield a final concentration of 0.1% v/v) to the wells of plates. A single compound was designated with four wells followed by incubation of plates for 96 h at 37 °C. After incubation, medium was removed completely from the plates followed by addition of MTT (0.4 mg/mL in medium) to each well and subsequent incubation of plates for 3 h. MTT (along with the medium) was removed and DMSO (150 μL) was added to each well of the culture plates, followed by vortexing and subsequent measurement of absorbance (at 540 nm) using microplate reader. The data are shown as percentage inhibition of proliferation in comparison with controls containing 0.1% DMSO.

[2] = test system: epithelial cancer cell line (A-549); test: Antiproliferative activity, MTT assay, A-549; type: cell-based; conditions: Homo sapiens, A549; A-549, MTT; read-out: Antiproliferative Activity IC50 ± SEM A-549
Method: (§3) The antiproliferative activity of 5b, 5d, 5e, 5g, 5j and 5n against four human cancer cell lines including pancreatic cancer cell line (Panc-1), breast cancer cell line (MCF-7), colon cancer cell line (HT-29) and epithelial cancer cell line (A-549) using MTT assay and doxorubicin was applied as the reference compound [22, 23]. Graph Pad Prism software (Graph Pad Software, San Diego, CA, USA) was used to calculate the median inhibition concentration (IC50) and results are recorded in Table 2.
(§4) The antiproliferative activity of 5b, 5d, 5e, 5g, 5j and 5n against four human cancer cell lines including pancreatic cancer cell line (Panc-1), breast cancer cell line (MCF-7), colon cancer cell line (HT-29) and epithelial cancer cell line (A-549) using MTT assay and doxorubicin was applied as the reference compound [22, 23]. See Appendix A.
(§5) To explore the antiproliferative potential of compounds MTT assay was performed according to previously reported procedure using different cell lines To explore the antiproliferative potential of compounds propidium iodide fluorescence assay was performed using different cell lines. To calculate the total nuclear DNA, a fluorescent dye (propidium iodide, PI) is used which can attach to the DNA, thus offering a quick and precise technique. PI cannot pass through the cell membrane and its signal intensity can be considered as directly proportional to quantity of cellular DNA. Cells whose cell membranes are damaged or have changed permeability are counted as dead ones. The assay was performed by seeding the cells of different cell lines at a density of 3000–7500 cells/well (in 200 µL medium) in culture plates followed by incubation for 24 h at 37 °C in humidified 5% CO2/95% air atmospheric conditions. The medium was removed; the compounds were added to the plates at 10 µM concentrations (in 0.1% DMSO) in triplicates, followed by incubation for 48 h. DMSO (0.1%) was used as control. After incubation, medium was removed followed by the addition of PI (25 µL, 50µg/mL in water/medium) to each well of the plates. At −80 °C, the plates were allowed to freeze for 24 h, followed by thawing at 25 °C. A fluorometer (Polar-Star BMG Tech, Offenburg, Germany) was used to record the readings at excitation and emission wavelengths of 530 and 620 nm for each well. The percentage cytotoxicity of compounds was calculated using the following formula: %Cytotoxicity=(Ac−Atc)/Ac×100 where Atc = Absorbance of treated cells and Ac = Absorbance of control. Erlotinib was used as positive control in the assay.

[3] = test system: breast cancer cell line (MCF-7); test: Antiproliferative activity, MTT assay, MCF-7; type: cell-based; conditions: Homo sapiens, MCF7; MCF-7, MTT; read-out: Antiproliferative Activity IC50 ± SEM MCF-7
Method: as §3, §4, §5

[4] = test system: pancreatic cancer cell line (Panc-1); test: Antiproliferative activity, MTT assay, Panc-1; type: cell-based; conditions: Homo sapiens; Panc-1, MTT; read-out: Antiproliferative Activity IC50 ± SEM Panc-1
Method: as §3, §4, §5

[5] = test system: colon cancer cell line (HT-29); test: Antiproliferative activity, MTT assay, HT-29; type: cell-based; conditions: Homo sapiens; HT-29, MTT; read-out: Antiproliferative Activity IC50 ± SEM HT-29
Method: as §3, §4, §5

[6] = test system: four human cancer cell lines (Panc-1, MCF-7, HT-29, A-549); test: Antiproliferative activity, MTT assay, average of the four cell lines; type: cell-based; conditions: for IC50: average of A-549, MCF-7, Panc-1, HT-29
Method: as §3, §4, §5

T1 sequence (P00915 whole entry): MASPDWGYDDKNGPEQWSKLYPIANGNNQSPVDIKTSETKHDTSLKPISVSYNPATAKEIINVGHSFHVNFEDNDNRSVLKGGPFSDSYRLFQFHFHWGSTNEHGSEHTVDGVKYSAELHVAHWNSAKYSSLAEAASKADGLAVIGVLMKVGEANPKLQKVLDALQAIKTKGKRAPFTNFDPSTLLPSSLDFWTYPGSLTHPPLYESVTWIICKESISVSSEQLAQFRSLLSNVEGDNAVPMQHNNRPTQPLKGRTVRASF
T4 sequence (O43570 25-354): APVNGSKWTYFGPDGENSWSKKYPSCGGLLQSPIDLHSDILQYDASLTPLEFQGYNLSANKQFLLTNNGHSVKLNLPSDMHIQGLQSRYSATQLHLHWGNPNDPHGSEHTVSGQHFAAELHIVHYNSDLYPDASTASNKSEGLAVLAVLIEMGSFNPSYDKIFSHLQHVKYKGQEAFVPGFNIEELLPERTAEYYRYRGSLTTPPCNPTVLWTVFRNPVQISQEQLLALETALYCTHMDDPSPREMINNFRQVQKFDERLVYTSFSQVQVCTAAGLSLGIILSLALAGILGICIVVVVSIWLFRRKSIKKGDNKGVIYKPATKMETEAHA

Structure (SMILES) | Ki (hCA I) [µM] | Ki (hCA II) [µM] | Selectivity Ratio hCA XII/ hCA IX (hCA IX) | Ki (hCA IX) | Ki (hCA XII) [µM] | viability at 96 h [1] [%] | IC50 [2] [µM] | IC50 [3] [µM] | IC50 [4] [µM] | IC50 [5] [µM] | IC50 [6] [µM] | melting point [°C] | IC50 (hCA IX) [µM] | GI50 ([6]; mean of four cell lines, read-out: mean GI50 against the four cell lines) [µM] | Ki (hCA I; stopped-flow CO2 hydrase assay, read-out: Ki hCA I) [µM] | GI50 ([6]; four cancer cell lines, read-out: GI50) [µM]
NS(=O)(=O)c1ccc(-n2c(-c3ccccc3[N+](=O)[O-])nc(-c3ccccc3)c2-c2ccccc2)cc1 [Compound 5j, 4-(2-(2-Nitrophenyl)-4,5-diphenyl-1H-imidazol-1-yl)benzene sulfonamide] | > 100 | > 100 | 5.60 | 1.1 µM | 6.2 | 88 | 4.6 ± 0.6 | 3.6 ± 0.2 | 4.6 ± 0.9 | 4.8 ± 0.4 | 4.4 | 280 to 282 |  |  |  | 
NS(=O)(=O)c1ccc(-n2c(-c3c(Cl)cccc3Cl)nc(-c3ccccc3)c2-c2ccccc2)cc1 [Compound 5d, 4-(2-(2,6-Dichlorophenyl)-4,5-diphenyl-1H-imidazol-1-yl)benzene sulfonamide] | > 100 | > 100 | 7.00 | 0.72 µM and 0.7 µM | 4.9 | 87 | 3.1 ± 0.6 | 3.9 ± 0.4 | 3.8 ± 0.3 | 3.1 ± 0.4 | 3.5 | 214 to 216 | 0.72 | 3.5 |  | 
NS(=O)(=O)c1ccc(-n2c(-c3cccs3)nc(-c3ccccc3)c2-c2ccccc2)cc1 [Compound 5n, 4-(4,5-Diphenyl-2-(thiophen-2-yl)-1H-imidazol-1-yl)benzene sulfonamide] | > 100 | > 100 | 5.00 | 1.3 µM | 6.4 | 90 | 4.7 ± 0.6 | 4.6 ± 0.6 | 4.8 ± 0.3 | 4.8 ± 0.2 | 4.7 | 290 to 292 |  |  |  | 
NS(=O)(=O)c1ccc(-n2c(-c3ccccc3Br)nc(-c3ccccc3)c2-c2ccccc2)cc1 [Compound 5b, 4-(2-(2-Bromophenyl)-4,5-diphenyl-1H-imidazol-1-yl)benzene sulfonamide] |  | > 100 | 11.50 | 0.36 µM and 0.4 µM | 4.6 | 91 | 2.8 ± 0.5 | 2.7 ± 0.4 | 2.5 ± 0.2 | 3.1 ± 0.1 | 2.8 |  | 0.36 |  | > 100 | 2.8
NS(=O)(=O)c1ccc(-n2c(-c3ccccc3O)nc(-c3ccccc3)c2-c2ccccc2)cc1 [Compound 5e, 4-(2-(2-Hydroxyphenyl)-4,5-diphenyl-1H-imidazol-1-yl)benzene sulfonamide] | > 100 | > 100 | 6.50 | 0.84 µM and 0.8 µM | 5.2 | 86 | 4.4 ± 0.7 | 3.6 ± 0.8 | 3.7 ± 0.5 | 3.9 ± 0.6 | 3.9 |  |  |  |  | 

From PMC8400968, “Design, Synthesis, Biological Evaluation, and Computational Studies of Novel Tri-Aryl Imidazole-Benzene Sulfonamide Hybrids as Promising Selective Carbonic Anhydrase IX and XII Inhibitors” (Molecules, 2021)
